US20210181179A1, “DIAGNOSIS AND TREATMENT OF IMMUNOTHERAPY-INDUCED NEUROTOXICITY” (MEMORIAL SLOAN KETTERING CANCER CENTER, priority 2018, published 2021)

Assays:
[1] = tested on: HMC3 microglial cell line; assay: RT-PCR of cytokines and chemokines in microglial cells; type: cell-based, human; details: for key chemokines, including CCL2, CXCL9 and CXCL10, and cytokine IL1beta: monocyte and microglial cell activation
Excerpt: FIGS. 19A-E. Kynurenine metabolites contribute to CRS. (FIG. 19A-B) RT-PCR analysis of cytokines and chemokines that lead to myeloid cell activation in response to kynurenine metabolites exposure. ([…]) Western blot analysis of HMC3 microglial cell line in response to kynurenine metabolites exposure. (FIGS. 19D-E.) RT-PCR analysis of cytokines and chemokines in response to exposure to cytokines shown (TNF, Il1β, IFNγ).
CCL2 (MCP1) and CXCL10 (IP10) serve as chemo-attractants for myeloid and T cells, while CXCL9 (MIG) is a potent T cell chemoattractant. […] We confirmed Il1β protein production in response to Il1β stimulation (FIG. 19C). Il1β production was dependent on Ahr activity, as addition of an Ahr antagonist blocked up-regulation of Il1β. Il1β is a strong inducer of microglial activation.

[2] = tested on: adult patients with CD19+B-ALL; assay: Management of neurotoxicity and CRS (tocilizumab, corticosteroid, seizure prophylaxis) in the 19-28z CAR T cell trial; type: in vivo, human
Excerpt: The anti-IL-6 receptor monoclonal antibody, tocilizumab, with or without corticosteroid is often used to mitigate CRS and neurotoxicity. Six (18%) of 33 patients with neurotoxicity received tocilizumab alone; 14 (42%) received tocilizumab plus corticosteroid; 4 (12%) received corticosteroid alone; and 9 (27%) received neither tocilizumab nor corticosteroid (FIG. 6/Supplementary Fig. S1). In the 16 patients with severe neurotoxicity who received tocilizumab, 9 (56.3%) had peak neurotoxicity after the first dose of tocilizumab whereas 7 (43.7%) had peak neurotoxicity prior to or on the day of tocilizumab administration. […] The time from first tocilizumab and/or steroid dose to resolution of neurotoxicity (median, 9 days; range 4-21 days) was longer than the time to resolution of CRS (median, 1 day; range 0-3 days; P<0.001), confirming previous findings that neurotoxicity is less responsive than CRS to these treatment interventions.
Toxicity assessment: CRS was graded according to the MSKCC CRS grading system. Severe CRS was defined as ≥grade 3. Neurotoxicity was prospectively graded according to National Cancer Institute common terminology criteria for adverse events (CTCAE) v4.03 by the principal investigator (P). An independent retrospective review of the electronic medical record was performed by a neurologist (BS) who assigned daily neurotoxicity grades to the AE terms according to CTCAE v4.03. Discrepancies were adjudicated by consensus review. All patients developing neurologic symptoms were evaluated by the neurology consult service and followed with daily neurologic assessments until neurologic symptom resolution. Severe neurotoxicity was defined as ≥grade 3 toxicity with the exception that any seizure (including grade 1 or 2 by CTCAE criteria) was included as severe neurotoxicity.

NMDA receptors = assay: Western blot of HCN2 neurons for NMDA receptor activation (p-CREB, p-Erk); type: cell-based; details: 30 min, cytokines applied via culture filtrates of stimulated HMC3 microglia
Excerpt: FIGS. 18A-B. Western blot analysis of HCN2 neurons showing NMDA receptor activation through increase in p-CREB levels in response to exposure to conditioned media. The conditioned media was produced by microglia and monocytes treated with cytokines to stimulate quinolinic acid (QUIN) production (FIG. 18A). This effect can be blocked with the use of IDO and AhR inhibitors (FIG. 18B) that block either kynurenine metabolite production or signaling.
QUIN binds directly to NMDA receptors, and leads to Ca^2+ influx, followed by activation cascade through Erk kinase phosphorylation and eventual phosphorylation of CREB transcription factor. In order to test if microglial cell derived QUIN is sufficient to activate NMDA receptors, we performed a co-culture experiment. Culture filtrates from an HMC3 microglial cell line were stimulated with IFNγ, Il1β, or combination of both, and were layered over HCN2 cortical neurons for 30 min, after which the cells were lysed and tested for downstream effectors of NMDA receptor activation.

CCF-STTG1 (astrocytoma) = assay: Net production of TRP metabolites in media samples, CCF-STTG1; type: cell-based, human
Excerpt: (§1) Under physiological conditions in the brain, kynurenine metabolism is driven by microglial cells and astrocytes with preferential production of QUIN and KA respectively. […] This may have been due to T cells producing cytokines and/or intermediate metabolites that are further metabolized to QUIN by the cells. In order to identify specific factors that may lead to tryptophan-kynurenine pathway up-regulation for QUIN production, we tested a panel of cytokine and chemokines implicated in NTX and CRS. […] We initially evaluated the panel of the select factors individually (FIGS. 16 A-B). We selected several cytokines based on their effect on rate-limiting enzymes for QUIN production. These included IFNγ, TNF, […], CXCL10 and […]. These enzymes were selected based on their regulation of key enzymes, KMO and KYNU, which may lead to supraphysiological accumulation of QUIN. These factors were further evaluated, individually or in combination, on astrocytoma, microglial, and primary monocyte-derived macrophages for mRNA levels of kynurenine pathway enzymes and kynurenine metabolites production (FIG. 17).

DOAY (medulloblastoma) = assay: Net production of TRP metabolites in media samples, DOAY; type: cell-based
HCN2 (cortical neuron) = assay: Net production of TRP metabolites in media samples, HCN2; type: cell-based
HMC3 (microglia) = assay: Net production of TRP metabolites in media samples, HMC3; type: cell-based, human
Excerpt: as §1

THP-1 (monocyte) = assay: Net production of TRP metabolites in media samples, THP-1; type: cell-based
ALL3.1 (B-ALL) = assay: Net production of TRP metabolites in media samples, ALL3.1; type: cell-based
BV173 (B-ALL) = assay: Net production of TRP metabolites in media samples, BV173; type: cell-based
CCRF-SB (B-ALL) = assay: Net production of TRP metabolites in media samples, CCRF-SB; type: cell-based
KARPAS231 (B-ALL) = assay: Net production of TRP metabolites in media samples, KARPAS231; type: cell-based
RS4; 11 (B-ALL) = assay: Net production of TRP metabolites in media samples, RS4; 11; type: cell-based
SUP-B15 (B-ALL) = assay: Net production of TRP metabolites in media samples, SUP-B15; type: cell-based
[3] = early intervention strategy; cited from earlier work

In the case of Nc1ccccc1C(=O)CC(N)C(=O)O (centres unmarked) [kynurenine], the “production of chemokines and cytokines on co-incubation” value ([1]; microglial cells, RT-PCR) was “induced production of several chemokines (CCL2, CXCL9, CXCL10) and cytokines, most notably Il1β” and the “key chemokines, including CCL2, CXCL9 and CXCL10, and cytokine IL1beta” value [1] was “up-regulation”.
For CC[C@@H](C(N)=O)N1CCCC1=O [levetiracetam], the “patients who developed seizure despite levetiracetam prophylaxis” value ([2]; seizure prophylaxis) was 14 patients.
For Il1beta: cytokine, the “p-CREB and p-Erk in cortical neurons” value (NMDA receptors) was “p-CREB and p-Erk upregulation” and the “monocyte attracting factors in response to Il1b” value ([1]; RT-PCR) was “strong upregulation of monocyte attracting factors, CCL2, CXCL9 and CXCL19”.
With IFNα the “Net production of TRP metabolites in media samples: 3-HK” value (“Net production … 3-HK” for short) (CCF-STTG1 (astrocytoma)) was −13.12 ± 0.55, the “Net production of TRP metabolites in media samples: HAA” value (“Net production … HAA” below) (CCF-STTG1 (astrocytoma)) was 10.54 ± 0.8 and the “Net production of TRP metabolites in media samples: KA” value (from here on “Net production … KA”) (CCF-STTG1 (astrocytoma)) was 3.46 ± 1. For the same compound, the “Net production of TRP metabolites in media samples: KYN” value (from here on “Net production … KYN”) (CCF-STTG1 (astrocytoma)) was 4734.38 ± 128, the “Net production of TRP metabolites in media samples: QUIN” value (shortened to “Net production … QUIN”) (CCF-STTG1 (astrocytoma)) was 15.16 ± 5.5 and the “Net production … 3-HK” value (DOAY (medulloblastoma)) was −13.46 ± 0.5. For the same compound, the “Net production … HAA” value (DOAY (medulloblastoma)) was 11.62 ± 0.8, the “Net production … KA” value (DOAY (medulloblastoma)) was 10.28 ± 3.2 and the “Net production … KYN” value (DOAY (medulloblastoma)) was 263.2 ± 20^. For the same compound, the “Net production … QUIN” value (DOAY (medulloblastoma)) was 54.5 ± 21.8, the “Net production … 3-HK” value (HCN2 (cortical neuron)) was −4.46 ± 8.2 and the “Net production … HAA” value (HCN2 (cortical neuron)) was 5.38 ± 0.4. The “Net production … KA” value (HCN2 (cortical neuron)) was 3.26 ± 6.1, the “Net production … KYN” value (HCN2 (cortical neuron)) was 105.24 ± 37 and the “Net production … QUIN” value (HCN2 (cortical neuron)) was 13.26 ± 31.6. For the same compound, the “Net production … 3-HK” value (HMC3 (microglia)) was 10.4 ± 18.6, the “Net production … HAA” value (HMC3 (microglia)) was 0.56 ± 1.8 and the “Net production … KA” value (HMC3 (microglia)) was 4.48 ± 3.1. For the same compound, the “Net production … KYN” value (HMC3 (microglia)) was 899.26 ± 383^, the “Net production … QUIN” value (HMC3 (microglia)) was 42 ± 18.5 and the “Net production … 3-HK” value (THP-1 (monocyte)) was 0.62 ± 1.4. The “Net production … KA” value (THP-1 (monocyte)) was −8.98 ± 2.2, the “Net production … KYN” value (THP-1 (monocyte)) was 101.24 ± 17.6 and the “Net production … QUIN” value (THP-1 (monocyte)) was 12.08 ± 32.1. For the same compound, the “Net production … 3-HK” value (ALL3.1 (B-ALL)) was 6.76 ± 6.7, the “Net production … KA” value (ALL3.1 (B-ALL)) was −1.1 ± 3.4 and the “Net production … KYN” value (ALL3.1 (B-ALL)) was 49.4 ± 114.2. The “Net production … QUIN” value (ALL3.1 (B-ALL)) was −55.38 ± 21.2, the “Net production … 3-HK” value (BV173 (B-ALL)) was 9.94 ± 8.7 and the “Net production … KA” value (BV173 (B-ALL)) was −3.56 ± 4.1. For the same compound, the “Net production … KYN” value (BV173 (B-ALL)) was 257.66 ± 175.9, the “Net production … QUIN” value (BV173 (B-ALL)) was 6.36 ± 32.9 and the “Net production … 3-HK” value (CCRF-SB (B-ALL)) was 1.16 ± 6.5. The “Net production … HAA” value (CCRF-SB (B-ALL)) was 5.3 ± 0.2, the “Net production … KA” value (CCRF-SB (B-ALL)) was −6.78 ± 4^ and the “Net production … KYN” value (CCRF-SB (B-ALL)) was 93.56 ± 90.1. The “Net production … QUIN” value (CCRF-SB (B-ALL)) was −47.16 ± 28.1, the “Net production … 3-HK” value (KARPAS231 (B-ALL)) was 5.48 ± 2.1 and the “Net production … HAA” value (KARPAS231 (B-ALL)) was 30.76 ± 4.2. The “Net production … KA” value (KARPAS231 (B-ALL)) was −9.3 ± 5.1, the “Net production … KYN” value (KARPAS231 (B-ALL)) was 200.48 ± 77.6 and the “Net production … QUIN” value (KARPAS231 (B-ALL)) was −42.74 ± 33.3. The “Net production … 3-HK” value (RS4; 11 (B-ALL)) was −1.96 ± 1.6, the “Net production … KA” value (RS4; 11 (B-ALL)) was −6.3 ± 2.3 and the “Net production … KYN” value (RS4; 11 (B-ALL)) was −14 ± 22.7. For the same compound, the “Net production … QUIN” value (RS4; 11 (B-ALL)) was 40.46 ± 24^, the “Net production … 3-HK” value (SUP-B15 (B-ALL)) was 19.38 ± 16.3 and the “Net production … HAA” value (SUP-B15 (B-ALL)) was 7.32 ± 1.1. The “Net production … KA” value (SUP-B15 (B-ALL)) was −10.36 ± 4.4, the “Net production … KYN” value (SUP-B15 (B-ALL)) was 292.4 ± 186.6 and the “Net production … QUIN” value (SUP-B15 (B-ALL)) was −79.6 ± 31.2.
For O=C(O)c1cc(=O)c2ccccc2[nH]1 [KA, kynurenic acid], the “key chemokines, including CCL2, CXCL9 and CXCL10, and cytokine IL1beta” value [1] was “up-regulation”.
In the case of tocilizumab, the “patients with peak neurotoxicity prior to or on the day of tocilizumab administration” value ([2]; 7 of 16 patients with severe neurotoxicity who received tocilizumab) was 43.7%, the “patients with peak neurotoxicity after the first dose of tocilizumab” value ([2]; 9 of 16 patients with severe neurotoxicity who received tocilizumab) was 56.3% and the “response of neurotoxicity to tocilizumab administration” value ([2]; in most patients) was “did not respond”. For the same compound, the “time from first tocilizumab and/or steroid dose to resolution of CRS (median)” value ([2]; range 0-3 days) was 1 days, the “time from first tocilizumab and/or steroid dose to resolution of neurotoxicity (median)” value ([2]; range 4-21 days) was 9 days and the “serum IL6 after tocilizumab administration” value ([2]; serum) was “transient increase of serum IL6”. For the same compound, the “effect on CRS” value ([2]; tocilizumab therapy alone) was “readily improved CRS”, the “effect on neurologic symptoms” value ([2]; tocilizumab therapy alone) was “did not ameliorate neurologic symptoms” and the “frequency of severe neurotoxicity” value [3] was “did not affect the frequency of severe neurotoxicity”. The “rate of severe CRS” value [3] was “decreased the rate of severe CRS”.
With O=C(O)c1cccnc1C(=O)O [quinolinic acid] the “p-CREB and p-Erk in cortical neurons” value (NMDA receptors) was “p-CREB and p-Erk upregulation”.
